Reference: US6685617B1, “Inhibitors of α4β1 mediated cell adhesion” (Pharmacia & Upjohn Company, priority 1998, dated 2004)
pIC50: −log10 of the molar value.

Target: T1, α4β1 integrin (Jurkat cell adhesion to immobilized CS-1 derived peptide CLHPGEILDVPST) (Homo sapiens, UniProt P05556+P13612)
T1 construct: 100 μl of Jurkat cells (2.5×10^6 cells/ml) in DMEM plus BSA; host or cells: Jurkat T-cell line
Assay: Jurkat-CS-1 assay
Type: cell-based
Conditions: Jurkat cells on CS-1 peptide coated plates; read-out: JK/CS-1 (Jurkat CS-1 Assay IC50 value range)
Protocol: The CS-1 derived peptide, CLHPGEILDVPST, and the scrambled control peptide, CLHGPIELVSDPT, were synthesized on a Beckman 990 synthesizer using t-Boc methodology. The peptides were immobilized onto microtiter plates using the heterobifunctional crosslinker 3-(2-pyridyldithio)propionic acid N-hydroxysuccinimide ester (SPDP) as reported by Pierschbacher et al., Proc. Natl. Acad. USA, 80:1224-1227 (1983). Microtiter plates were coated with 20 μg/ml HSA for 2 hr. at room temperature, washed once with PBS and derivatized with 10 μg/ml SPDP for 1 hr. After washing, 100 μl of a 100 μg/ml cysteine containing peptide solution which had been recently dissolved was added to the wells and allowed to crosslink to the plates overnight at 4° C. Unbound peptide was removed from plates by washing with PBS. To block non-reacted sites, the plates are coated with 100 μl of a 2.5 mg/ml BSA solution in PBS for 1 hr. at 37° C. 100 μl of Jurkat cells (2.5×10^6 cells/ml) in DMEM plus BSA (2.5 mg/ml) was mixed with an appropriate concentration of the compound to be tested and the mixture was added to peptide coated dishes and incubated for 1 hr. at 37° C. Generally 100, 20, 5 and 1.25 μM concentrations of the compound were tested.
Following this incubation the plates were washed once with PBS and the attached cells were fixed with 3% paraformaldehyde in PBS and stained with 0.5% toluidine blue in 3.7% formaldehyde. The cells were stained overnight at room temperature and the optical density at 590 nm of toluidine blue stained cells was determined using a vertical pathway spectrophotometer to quantitate attachment (VMAX Kinetic Microplate Reader, Molecular Devices, Menlo Park, Calif.). This procedure is a modification of a previously published method (Cardarelli et al, J. Biol. Chem., 269:18668-18673 (1994) and Cardarelli et al, Proc. Natl. Acad. Sci. USA, 83:2647-2651 (1986)).

T1 sequence (P13612 34-1032): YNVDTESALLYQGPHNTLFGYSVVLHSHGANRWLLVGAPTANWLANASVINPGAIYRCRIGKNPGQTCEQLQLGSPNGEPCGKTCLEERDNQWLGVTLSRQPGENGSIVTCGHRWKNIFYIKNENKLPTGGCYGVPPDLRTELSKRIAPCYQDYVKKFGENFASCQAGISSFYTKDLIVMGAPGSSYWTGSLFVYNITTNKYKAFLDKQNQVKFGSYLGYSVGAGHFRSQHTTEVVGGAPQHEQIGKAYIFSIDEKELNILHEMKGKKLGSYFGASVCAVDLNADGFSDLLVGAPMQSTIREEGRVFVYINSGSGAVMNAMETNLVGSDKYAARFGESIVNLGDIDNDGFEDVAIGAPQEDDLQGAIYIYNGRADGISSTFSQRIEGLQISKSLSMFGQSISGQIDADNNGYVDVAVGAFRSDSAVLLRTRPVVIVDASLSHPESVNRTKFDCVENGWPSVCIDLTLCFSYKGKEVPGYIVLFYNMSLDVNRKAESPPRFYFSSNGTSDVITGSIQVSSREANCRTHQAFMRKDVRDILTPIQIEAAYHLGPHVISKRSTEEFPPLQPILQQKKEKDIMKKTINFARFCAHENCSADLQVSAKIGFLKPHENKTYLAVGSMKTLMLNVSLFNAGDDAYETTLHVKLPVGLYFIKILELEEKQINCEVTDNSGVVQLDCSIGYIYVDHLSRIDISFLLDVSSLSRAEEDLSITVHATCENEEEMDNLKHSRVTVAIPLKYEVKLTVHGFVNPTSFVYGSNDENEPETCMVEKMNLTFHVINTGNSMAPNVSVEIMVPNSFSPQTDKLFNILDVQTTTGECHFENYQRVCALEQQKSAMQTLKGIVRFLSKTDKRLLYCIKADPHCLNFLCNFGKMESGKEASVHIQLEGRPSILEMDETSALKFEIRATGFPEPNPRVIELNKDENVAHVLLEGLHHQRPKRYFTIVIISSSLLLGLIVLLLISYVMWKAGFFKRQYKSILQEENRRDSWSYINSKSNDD
T1 sequence (P05556 21-798): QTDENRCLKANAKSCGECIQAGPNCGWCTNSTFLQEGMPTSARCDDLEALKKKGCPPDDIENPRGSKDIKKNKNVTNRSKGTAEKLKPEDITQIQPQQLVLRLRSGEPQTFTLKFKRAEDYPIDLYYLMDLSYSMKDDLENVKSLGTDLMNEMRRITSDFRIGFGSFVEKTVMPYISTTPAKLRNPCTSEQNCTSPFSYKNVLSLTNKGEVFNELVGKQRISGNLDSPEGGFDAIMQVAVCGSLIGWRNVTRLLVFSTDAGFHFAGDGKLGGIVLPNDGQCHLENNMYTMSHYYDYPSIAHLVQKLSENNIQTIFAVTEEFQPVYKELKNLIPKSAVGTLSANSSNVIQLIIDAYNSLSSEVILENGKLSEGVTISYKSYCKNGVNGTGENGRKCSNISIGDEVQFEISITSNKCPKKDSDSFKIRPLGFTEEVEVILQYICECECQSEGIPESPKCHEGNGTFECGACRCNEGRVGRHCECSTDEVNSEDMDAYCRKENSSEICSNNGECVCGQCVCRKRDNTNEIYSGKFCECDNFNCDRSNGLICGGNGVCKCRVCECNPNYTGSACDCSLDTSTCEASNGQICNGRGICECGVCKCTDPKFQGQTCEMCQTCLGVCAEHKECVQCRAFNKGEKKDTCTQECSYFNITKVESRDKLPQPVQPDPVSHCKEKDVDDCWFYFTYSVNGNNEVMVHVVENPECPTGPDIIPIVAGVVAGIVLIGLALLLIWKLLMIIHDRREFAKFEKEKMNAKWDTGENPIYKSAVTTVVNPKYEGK

Compound	pIC50
O=C(Nc1ccc(C[C@H](NC(=O)C2CSC3COC(=O)N32)C(=O)O)cc1)c1c(Cl)cccc1Cl (single isomer, unassigned) [Example 281, 4-[(2,6-Dichlorobenzoyl)amino]-N-[(tetrahydro-5-oxo-5H-thiazolo[3,2-c]oxazol-3-yl)carbonyl]-L-phenylalanine]	6.12 to 7.30
O=C(Nc1ccc(C[C@H](NC(=O)C2CSC3COC(=O)N32)C(=O)O)cc1)c1c(Cl)cccc1Cl (single isomer, unassigned) [Example 282, 4-[(2,6-Dichlorobenzoyl)amino]-N-[(tetrahydro-5-oxo-5H-thiazolo[3,2-c]oxazol-3-yl)carbonyl]-L-phenylalanine]	≥ 7.30
CCOC(=O)N1CSCC1C(=O)N[C@@H](Cc1ccc(NC(=O)c2c(Cl)cccc2Cl)nc1)C(=O)O (stereo in doubt) [Example 290, [S-(R*,R*)]-4-[[[1-Carboxy-2-[2-[(2,6-dichlorobenzoyl)amino]-5-pyridinyl]ethyl]amino]carbonyl]-3-thiazolidinecarboxylic Acid Ethyl Ester]	≥ 7.30
CCOC(=O)N1CSC[C@@H]1C(=O)N[C@@H](Cc1ccc(NC(=O)c2ccccc2)cc1)C(=O)O [Example 268, (4S)-4-[[[(1S)-1-Carboxy-2-[4-[(benzoyl)amino]phenyl]ethyl]amino]carbonyl]-3-thiazolidinecarboxylic Acid 3-Ethyl Ester]	≤ 6.12
CCOC(=O)N1CSC[C@@H]1C(=O)N[C@@H](Cc1ccc(NC(C)=O)cc1)C(=O)O [Example 269, (4S)-4-[[[(1S)-1-Carboxy-2-[4-[(acetyl)amino]phenyl]ethyl]amino]carbonyl]-3-thiazolidinecarboxylic Acid 3-Ethyl Ester]	≤ 6.12
CCOC(=O)N1CSC[C@@H]1C(=O)N[C@@H](Cc1ccc(NC(=O)CCc2ccccc2)cc1)C(=O)O [Example 270, (4S)-4-[[[(1S)-1-Carboxy-2-[4-[(3-phenylpropanoyl)amino]phenyl]ethyl]amino]carbonyl]-3-thiazolidinecarboxylic Acid 3-Ethyl ester]	6.12 to 7.30
CCOC(=O)N1CSC[C@@H]1C(=O)N[C@@H](Cc1ccc(NC(=O)c2cccnc2)cc1)C(=O)O [Example 271, (4S)-4-[[[(1S)-1-Carboxy-2-[4-[(3-pyridinylcarbonyl)amino]phenyl]ethyl]amino]carbonyl]-3-thiazolidinecarboxylic Acid 3-Ethyl Ester]	6.12 to 7.30
CCOC(=O)N1CSC[C@@H]1C(=O)N[C@@H](Cc1ccc(NC(=O)c2ccc(OC)cc2)cc1)C(=O)O [Example 272, (4S)-4-[[[(1S)-1-Carboxy-2-[4-[(4-methoxybenzoyl)amino]phenyl]ethyl]amino]carbonyl]-3-thiazolidinecarboxylic Acid 3-Ethyl Ester]	6.12 to 7.30
CCOC(=O)N1CSC[C@@H]1C(=O)N[C@@H](Cc1ccc(NC(=O)c2ccc(C)cc2)cc1)C(=O)O [Example 273, (4S)-4-[[[(1S)-1-Carboxy-2-[4-[(4-methylbenzoyl)amino]phenyl]ethyl]amino]carbonyl]-3-thiazolidinecarboxylic Acid 3-Ethyl Ester]	≤ 6.12
CCOC(=O)N1CSC[C@@H]1C(=O)N[C@@H](Cc1ccc(NC(=O)c2ccccc2C(F)(F)F)cc1)C(=O)O [Example 274, (4S)-4-[[[(1S)-1-Carboxy-2-[4-[[2-(trifluoromethyl)benzoyl]amino]phenyl]ethyl]amino]carbonyl]-3-thiazolidinecarboxylic Acid 3-Ethyl Ester]	6.12 to 7.30
CCOC(=O)N1CSC[C@@H]1C(=O)N[C@@H](Cc1ccc(NC(=O)c2c(Cl)cc(Cl)cc2Cl)cc1)C(=O)O [Example 275, (4S)-4-[[[(1S)-1-Carboxy-2-[4-[(2,4,6-trichlorobenzoyl)amino]phenyl]ethyl]amino]-carbonyl]-3-thiazolidinecarboxylic Acid 3-Ethyl Ester]	≥ 7.30
CCOC(=O)N1CSC[C@@H]1C(=O)N[C@@H](Cc1ccc(NS(=O)(=O)c2cc(Cl)ccc2Cl)cc1)C(=O)O [Example 276, (4S)-4-[[[(1S)-1-Carboxy-2-[4-[[(2,5-dichlorophenyl)sulfonyl]amino]phenyl]ethyl]amino]carbonyl]-3-thiazolidinecarboxylic Acid 3-Ethyl Ester]	≤ 6.12
CCOC(=O)N1CSC[C@@H]1C(=O)N[C@@H](Cc1ccc(NC(=O)Nc2c(Cl)cccc2Cl)cc1)C(=O)O [Example 277, (4S)-4-[[[(1S)-1-Carboxy-2-[4-[[[(2,6-dichlorophenyl)amino]carbonyl]amino]phenyl]ethyl]amino]carbonyl]-3-thiazolidinecarboxylic Acid 3-Ethyl Ester]	≤ 6.12
CCOC(=O)N1CSC[C@@H]1C(=O)N[C@@H](Cc1ccc(C(=O)Nc2c(Cl)cc(Cl)cc2Cl)cc1)C(=O)O [Example 278, (4S)-4-[[[(1S)-1-Carboxy-2-[4-[[(2,4,6-trichlorophenyl)amino]carbonyl]phenyl]ethyl]amino]carbonyl]-3-thiazolidinecarboxylic Acid 3-Ethyl Ester]	6.12 to 7.30
O=C(Nc1ccc(C[C@H](NC(=O)C2CS[C@H]3CNC(=O)N23)C(=O)O)cc1)c1c(Cl)cccc1Cl (stereo partly drawn) [Example 279, 4-[(2,6-Dichlorobenzoyl)amino]-N-[[(7aS)-hexahydro-5-oxoimidazo[5,1-b]thiazol-3-yl]carbonyl]-L-phenylalanine]	6.12 to 7.30
O=C(Nc1ccc(C[C@H](NC(=O)C2CS[C@@H]3CNC(=O)N23)C(=O)O)cc1)c1c(Cl)cccc1Cl (stereo partly drawn) [Example 280, 4-[(2,6-Dichlorobenzoyl)amino]-N-[[(7aR)-hexahydro-5-oxoimidazo[5,1-b]thiazol-3-yl]carbonyl]-L-phenylalanine]	6.12 to 7.30
CCOC(=O)N1C(c2ccncc2)SC[C@@H]1C(=O)N[C@@H](Cc1ccc(NC(=O)c2c(Cl)cccc2Cl)cc1)C(=O)O (stereo partly drawn) [Example 283, (4S)-4-[[[(1S)-1-Carboxy-2-[4-[(2,6-dichlorobenzoyl)amino]phenyl]ethyl]amino]carbonyl]-2-(4-pyridinyl)-3-thiazolidinecarboxylic Acid 3-Ethyl Ester]	6.12 to 7.30
NC(=O)[C@H](Cc1ccc(OCc2c(Cl)cccc2Cl)cc1)NC(=O)[C@H]1CSCN1C(=O)OCCN1CCCC1 [Example 284]	6.12 to 7.30
O=C(O)[C@H](Cc1ccc(OCc2c(Cl)cccc2Cl)cc1)NC(=O)[C@H]1CSCN1C(=O)OC1CCOC1 (stereo partly drawn) [Example 285, (4S)-4-[[[(1S)-1-Carboxy-2-[4-[(2,6-dichlorophenyl)methoxy]phenyl]ethyl]amino]carbonyl]-3-thiazolidinecarboxylic Acid 3-(3-Tetrahydrofuranyl)ester]	6.12 to 7.30
NC(=O)[C@H](Cc1ccc(OCc2c(Cl)cccc2Cl)cc1)NC(=O)[C@H]1CSCN1C(=O)OCCN1CCCCC1 [Example 286, (4S)-4-[[[(1S)-2-Amino-1-[[4-[(2,6-dichlorophenyl)methoxy]phenyl]methyl]-2-oxoethyl]amino]carbonyl]-3-thiazolidinecarboxylic Acid 3-[2-(1-Piperidinyl)ethyl]ester]	6.12 to 7.30
CN1CCN(CCOC(=O)N2CSC[C@@H]2C(=O)N[C@@H](Cc2ccc(OCc3c(Cl)cccc3Cl)cc2)C(N)=O)CC1 [Example 287, (4S)-4-[[[(1S)-2-Amino-1-[[4-[(2,6-dichlorophenyl)methoxy]phenyl]methyl]-2-oxoethyl]amino]carbonyl]-3-thiazolidinecarboxylic Acid 3-[2-(4-Methyl-1-piperazinyl)ethyl]ester]	6.12 to 7.30
